Reference: article PMC8913315, “Comparison of glycoside hydrolase family 3 β-xylosidases from basidiomycetes and ascomycetes reveals evolutionarily distinct xylan degradation systems” (The Journal of Biological Chemistry, 2022)

Assays:
TrXyl3A = target: T1, TrXyl3A (Trichoderma reesei, UniProt Q92458); assay: X-ray crystal structure, […] Å; format: binding; conditions: crystal soaked 1 h with 14 mM 4-thioxylobiose, pH 7.0; subsites -1 and +1
T1 construct: gene bxl1; kinetics: synthetic gene codon-optimized, pPICZalpha A, secreted from Pichia pastoris KM71H; crystals: protein gift from DuPont Industrial Bioscience; 777 residues; dimer in asymmetric unit

PcBxl3 = target: T2, PcBxl3 (Phanerodontia chrysosporium, UniProt Z9K6S9QQP9); assay: X-ray crystal structure, […] Å; format: binding; conditions: crystal soaked briefly in 100 mM xylobiose, 40% PEG 400; Endo H deglycosylated; subsite -1
T2 construct: cDNA from strain K-3, pPICZalpha A, secreted from Pichia pastoris KM71H; 743 residues; glycosylated, Endo H treated for crystals; monomer in asymmetric unit
T2 sequence (Z9K6S9QQP9 1-743): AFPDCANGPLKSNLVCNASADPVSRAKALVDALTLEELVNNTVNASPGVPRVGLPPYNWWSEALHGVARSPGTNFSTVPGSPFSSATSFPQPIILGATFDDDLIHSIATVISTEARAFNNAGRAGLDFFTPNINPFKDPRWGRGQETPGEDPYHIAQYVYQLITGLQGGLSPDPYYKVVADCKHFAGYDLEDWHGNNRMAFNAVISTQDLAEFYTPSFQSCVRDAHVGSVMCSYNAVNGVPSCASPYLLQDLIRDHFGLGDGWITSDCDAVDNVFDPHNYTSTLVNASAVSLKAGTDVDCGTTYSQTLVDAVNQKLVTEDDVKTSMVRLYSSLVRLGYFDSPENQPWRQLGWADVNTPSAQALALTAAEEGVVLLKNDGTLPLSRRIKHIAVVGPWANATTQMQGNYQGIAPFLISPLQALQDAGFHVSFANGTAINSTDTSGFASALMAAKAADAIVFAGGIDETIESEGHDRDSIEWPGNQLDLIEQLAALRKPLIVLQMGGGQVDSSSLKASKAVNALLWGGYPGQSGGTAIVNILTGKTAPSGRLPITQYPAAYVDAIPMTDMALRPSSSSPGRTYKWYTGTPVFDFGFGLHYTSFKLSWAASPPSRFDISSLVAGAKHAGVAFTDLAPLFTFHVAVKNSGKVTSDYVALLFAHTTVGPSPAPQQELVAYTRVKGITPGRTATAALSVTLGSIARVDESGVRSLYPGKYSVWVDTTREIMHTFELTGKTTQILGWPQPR

T1 sequence (Q92458 entry or part of it): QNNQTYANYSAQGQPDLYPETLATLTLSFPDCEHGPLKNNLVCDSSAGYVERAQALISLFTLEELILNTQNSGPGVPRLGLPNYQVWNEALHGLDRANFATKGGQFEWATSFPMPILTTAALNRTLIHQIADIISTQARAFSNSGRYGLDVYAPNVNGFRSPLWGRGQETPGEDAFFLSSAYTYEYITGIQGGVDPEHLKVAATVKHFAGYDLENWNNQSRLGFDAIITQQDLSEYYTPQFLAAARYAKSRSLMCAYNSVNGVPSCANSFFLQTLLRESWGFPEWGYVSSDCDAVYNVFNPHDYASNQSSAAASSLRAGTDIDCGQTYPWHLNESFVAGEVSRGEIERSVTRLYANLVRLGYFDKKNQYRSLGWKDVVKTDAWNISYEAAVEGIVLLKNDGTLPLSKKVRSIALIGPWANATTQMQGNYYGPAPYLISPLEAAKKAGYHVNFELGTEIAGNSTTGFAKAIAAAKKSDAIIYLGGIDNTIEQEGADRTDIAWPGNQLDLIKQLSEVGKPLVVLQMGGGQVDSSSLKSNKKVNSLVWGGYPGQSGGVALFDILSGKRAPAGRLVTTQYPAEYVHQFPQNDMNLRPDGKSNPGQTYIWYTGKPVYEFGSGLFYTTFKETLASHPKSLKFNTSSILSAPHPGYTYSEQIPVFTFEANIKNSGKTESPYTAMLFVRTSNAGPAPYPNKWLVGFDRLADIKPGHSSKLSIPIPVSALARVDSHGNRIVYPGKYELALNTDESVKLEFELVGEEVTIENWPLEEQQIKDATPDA

SMILES	X-ray crystal structure, 2.1 Å (TrXyl3A)	X-ray crystal structure, 3.08 Å (PcBxl3)
OC1OC[C@@H](S[C@@H]2OC[C@@H](O)[C@H](O)[C@H]2O)[C@H](O)[C@H]1O (some centres unmarked) [4-thioxylobiose]	The crystal structure of TrXyl3A bound with thioxylobiose was determined by molecular replacement	–
OC1OC[C@@H](O)[C@H](O)[C@H]1O (some centres unmarked) [X, xylose]	–	The structure of PcBxl3 with xylose bound in the catalytic center was also determined
